Measured values: ChEMBL document CHEMBL1201862, “PubChem BioAssay data set” (2004)
Activity calls are given as the source filed them.

Tests used:
[1] = off-target signal loss in HeLa-CEM21 co-culture – HeLa F-luc CTL cells, cherry-picked, counter-screen for HIV-1 Env fusion inhibitor project, dose response (AID 652040); format: functional, cell-based;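 further: potency for signal decrease marking cytotoxic or nonspecific inhibition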
[2] = inhibitors of clade B AD8 Env fusion, dose response, cell-based, cherry-pick (AID 652062); format: functional;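 further: luciferase signal from cell-cell fusion driven by HIV-1 clade B AD8 Env; potency is for inhibitors of fusion seen as a drop in luminescence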
[3] = ZM109 Env clade C HIV-1 fusion inhibitors, dose response, HeLa effector, CEM target cells, luciferase, cherry-pick (AID 652058); format: functional, cell-based
[4] = target: T1, Heat shock factor protein 1 (Mus musculus, UniProt P38532); assay: inhibition of MG132-induced HSE-luciferase signal, confirmation, cell-based, NIH3T3, luminescence, dose retest (AID 2382); format: functional;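 further: NIH3T3 fibroblasts with HSF1-driven luciferase reporter stressed by proteasome inhibitor MG132; luminescence from HSF1-driven luciferase expression after 8 hours of MG132 stress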
T1 sequence (P38532 whole entry): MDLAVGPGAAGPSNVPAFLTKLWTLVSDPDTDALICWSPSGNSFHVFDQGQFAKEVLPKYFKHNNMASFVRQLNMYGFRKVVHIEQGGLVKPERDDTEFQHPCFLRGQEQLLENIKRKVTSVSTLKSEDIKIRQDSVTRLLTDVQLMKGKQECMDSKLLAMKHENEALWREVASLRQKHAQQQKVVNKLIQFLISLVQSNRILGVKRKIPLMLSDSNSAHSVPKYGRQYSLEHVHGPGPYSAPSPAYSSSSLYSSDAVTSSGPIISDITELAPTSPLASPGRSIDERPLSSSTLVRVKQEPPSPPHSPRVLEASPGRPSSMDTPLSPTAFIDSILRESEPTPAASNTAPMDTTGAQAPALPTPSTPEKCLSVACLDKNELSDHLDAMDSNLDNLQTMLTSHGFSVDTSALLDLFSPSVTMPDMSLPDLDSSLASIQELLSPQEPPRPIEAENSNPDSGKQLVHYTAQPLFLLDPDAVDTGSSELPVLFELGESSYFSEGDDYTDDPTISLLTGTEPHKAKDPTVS

[5] = inhibitors of HIV Env-driven cell fusion, dose response, cherry-pick (AID 652057); format: functional, cell-based
[6] = target: Beta-galactosidase (Escherichia coli, UniProt Q8VNN2); assay: PubChem AID 485352; format: functional
[7] = target: T2, Type-1 angiotensin II receptor (Homo sapiens, UniProt P30556); assay: AT1 receptor antagonists, dose response, selectivity assay for APJ receptor antagonist project, cell-based, uHTS hits (AID 463214); format: functional;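 further: antagonist potency against angiotensin II stimulated AT1 response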
T2 sequence (P30556 whole entry): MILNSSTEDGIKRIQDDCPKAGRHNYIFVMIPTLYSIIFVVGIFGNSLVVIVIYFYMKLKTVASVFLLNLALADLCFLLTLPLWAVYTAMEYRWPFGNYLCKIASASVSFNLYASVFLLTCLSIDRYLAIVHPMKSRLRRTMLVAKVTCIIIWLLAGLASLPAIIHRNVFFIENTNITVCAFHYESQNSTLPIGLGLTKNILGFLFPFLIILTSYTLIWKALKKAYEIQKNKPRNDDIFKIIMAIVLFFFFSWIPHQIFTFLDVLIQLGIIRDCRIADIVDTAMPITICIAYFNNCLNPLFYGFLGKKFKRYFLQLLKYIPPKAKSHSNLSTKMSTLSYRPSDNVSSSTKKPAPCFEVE

[8] = Luminescence Cell-Based Dose Response HTS to Identify Activators of Luciferase Translation or Activity in H4 […] Cells. [Related pubchem assays: 1829 (Project Summary), 1814 (Primary HTS)]; format: functional
[9] = target: T3, Coagulation factor XII (Homo sapiens, UniProt P00748); format: functional;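 further: activated factor XIIa alpha cleaving a fluorogenic AMC peptide substrate; inhibitor potency from loss of enzyme activity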
T3 sequence (P00748 whole entry): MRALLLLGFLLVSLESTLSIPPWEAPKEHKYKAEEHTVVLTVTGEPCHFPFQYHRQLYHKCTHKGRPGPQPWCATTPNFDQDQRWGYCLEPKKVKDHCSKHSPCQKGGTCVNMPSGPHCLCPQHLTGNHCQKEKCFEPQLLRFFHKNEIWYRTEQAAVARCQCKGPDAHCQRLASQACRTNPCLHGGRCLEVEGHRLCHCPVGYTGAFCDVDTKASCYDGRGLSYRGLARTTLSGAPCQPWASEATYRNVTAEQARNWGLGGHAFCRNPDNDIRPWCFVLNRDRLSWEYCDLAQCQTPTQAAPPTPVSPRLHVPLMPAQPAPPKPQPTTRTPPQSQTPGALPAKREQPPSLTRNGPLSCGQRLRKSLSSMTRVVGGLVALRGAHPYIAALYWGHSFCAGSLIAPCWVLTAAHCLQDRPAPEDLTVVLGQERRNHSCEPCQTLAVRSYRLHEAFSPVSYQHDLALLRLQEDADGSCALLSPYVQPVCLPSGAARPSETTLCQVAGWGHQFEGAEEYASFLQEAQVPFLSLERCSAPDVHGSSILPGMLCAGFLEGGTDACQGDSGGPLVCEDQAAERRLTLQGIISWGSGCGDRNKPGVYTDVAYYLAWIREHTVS

[10] = tested on: H4; assay: Luminescence Cell-Based Dose Response HTS to Identify Activators of 5'UTR Stem-Loop Driven Prion Protein mRNA Translation in H4 Neuroglioblastoma Cells. [Related pubchem assays: 1829 (Project Summary), 1814 (Primary HTS)]; format: functional; conditions: Homo sapiens
[11] = Luminescence Cell-Based Dose Confirmation HTS to Identify Activators of 5'UTR Stem-Loop Driven Alpha-Synuclein mRNA Translation in H4 Neuroglioblastoma Cells. [Related pubchem assays: 1829 (Project Summary), 1814 (Primary HTS)]; format: functional
[12] = target: T4, Calpain-2 catalytic subunit (Sus scrofa, UniProt P43367); assay: pig calpain II inhibitor potency, dose response, biochemical, fluorogenic peptide substrate (AID 1420); format: functional
T4 sequence (P43367 whole entry): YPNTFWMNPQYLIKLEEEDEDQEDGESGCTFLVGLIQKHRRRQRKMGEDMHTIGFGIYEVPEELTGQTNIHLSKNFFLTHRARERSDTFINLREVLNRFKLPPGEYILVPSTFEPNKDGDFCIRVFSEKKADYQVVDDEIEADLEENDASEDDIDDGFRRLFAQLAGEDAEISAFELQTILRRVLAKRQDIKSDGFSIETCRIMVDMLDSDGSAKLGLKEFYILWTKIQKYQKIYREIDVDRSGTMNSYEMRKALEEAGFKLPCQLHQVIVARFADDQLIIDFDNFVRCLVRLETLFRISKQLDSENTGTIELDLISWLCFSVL

[13] = Luminescence Cell-Based Dose Response HTS to Identify Inhibitors of 5'UTR Stem-Loop Driven Prion Protein mRNA Translation in H4 Neuroglioblastoma Cells. [Related pubchem assays: 1827 (Project Summary), 1813 (Primary HTS)]; format: functional
[14] = target: Nonstructural protein 1 (Influenza A virus, UniProt Q194T2); format: functional, Influenza A virus (A/California/07/2009(H1N1))
[15] = tested on: H9c2; assay: cells; format: functional, cell-based; conditions: Rattus norvegicus, H9c2, Myocardium;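 further: confirmatory concentration-response retest of ultra-high-throughput screening hits for modulation of myocardial damage; cell death induced by hydrogen peroxide oxidative stress; compound pretreatment for 60 min then peroxide exposure for 2 h; potency is for protecting the cells against peroxide damage rather than for killing them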
[16] = inhibitors of firefly luciferase expression or activity, dose response, H4 neuroglioma cells, luminescence (AID 1990); format: functional, cell-based
[17] = inhibitors of SNCA 5'UTR-driven reporter translation, confirmation, H4 neuroglioma cells, luminescence (AID 1988); format: functional, cell-based
[18] = target: T5, Ubiquitin-conjugating enzyme E2 N (Homo sapiens, UniProt P61088); format: functional;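 further: Dose-response confirmation in a TR-FRET assay detecting UBC13-driven polyubiquitin chain formation, inhibition measured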
T5 sequence (P61088 whole entry): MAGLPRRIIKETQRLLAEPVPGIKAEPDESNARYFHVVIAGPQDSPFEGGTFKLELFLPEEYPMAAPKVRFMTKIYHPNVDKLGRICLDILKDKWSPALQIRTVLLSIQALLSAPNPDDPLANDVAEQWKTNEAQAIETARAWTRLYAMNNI

[19] = NIH-3T3 fibroblast cytotoxicity, dose response, cytotoxicity control, cell-based, fluorescence, Alamar Blue, secondary assay (AID 2327); format: functional;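 further: NIH-3T3 mouse fibroblasts cultured with fluconazole at 8 µg/mL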
[20] = C. albicans growth with fluconazole, confirmation, fluorescence, retest (AID 2467); format: functional, cell-based
[21] = THP-1 cell cytotoxicity, dose response, cytotoxicity control for non-replicating M. tuberculosis project (AID 489025); format: functional
[22] = target: T6, Fatty acid synthase (Homo sapiens, UniProt P49327); assay: FAS thioesterase domain inhibitors, dose response, biochemical, endpoint fluorescence intensity, uHTS hits (AID 624327); format: functional;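 further: fluorescence from hydrolysis of an O-methyl fluorescein acyl ester substrate by the enzyme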
[23] = target: T6, Fatty acid synthase; assay: FAS thioesterase domain inhibitors, dose response, biochemical, kinetic fluorescence intensity (AID 624326); format: functional;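 further: rate of fluorescence rise from hydrolysis of a fluorogenic O-methyl fluorescein ester substrate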
[24] = tested on: Streptococcus sp. 'group A'; assay: growth inhibition of control SK(-) GAS strain, dose response, counter-screen for streptokinase expression inhibitor project, luminescence, kanamycin, BacTiterGlo, confirmation (AID 1900); format: functional, organism-based
[25] = tested on: Streptococcus; assay: Group A Streptococcus viability loss, dose response, counter-screen for streptokinase expression inhibitor project, luminescence, BacTiterGlo (AID 1915); format: functional, organism-based;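 further: potency for reduction of bacterial viability or growth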
[26] = P. falciparum Dd2 growth inhibitors, dose response, SYBR Green, cherry-picked samples (AID 1159567); format: functional, cell-based

Sequence of Nonstructural protein 1 (Q194T2 whole entry): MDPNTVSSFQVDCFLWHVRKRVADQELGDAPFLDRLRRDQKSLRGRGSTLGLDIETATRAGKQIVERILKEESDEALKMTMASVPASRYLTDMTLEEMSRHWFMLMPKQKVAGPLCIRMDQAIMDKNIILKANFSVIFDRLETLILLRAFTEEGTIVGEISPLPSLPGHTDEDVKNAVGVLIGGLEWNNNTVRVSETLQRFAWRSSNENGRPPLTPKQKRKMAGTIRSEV
Sequence of Beta-galactosidase (Q8VNN2 whole entry): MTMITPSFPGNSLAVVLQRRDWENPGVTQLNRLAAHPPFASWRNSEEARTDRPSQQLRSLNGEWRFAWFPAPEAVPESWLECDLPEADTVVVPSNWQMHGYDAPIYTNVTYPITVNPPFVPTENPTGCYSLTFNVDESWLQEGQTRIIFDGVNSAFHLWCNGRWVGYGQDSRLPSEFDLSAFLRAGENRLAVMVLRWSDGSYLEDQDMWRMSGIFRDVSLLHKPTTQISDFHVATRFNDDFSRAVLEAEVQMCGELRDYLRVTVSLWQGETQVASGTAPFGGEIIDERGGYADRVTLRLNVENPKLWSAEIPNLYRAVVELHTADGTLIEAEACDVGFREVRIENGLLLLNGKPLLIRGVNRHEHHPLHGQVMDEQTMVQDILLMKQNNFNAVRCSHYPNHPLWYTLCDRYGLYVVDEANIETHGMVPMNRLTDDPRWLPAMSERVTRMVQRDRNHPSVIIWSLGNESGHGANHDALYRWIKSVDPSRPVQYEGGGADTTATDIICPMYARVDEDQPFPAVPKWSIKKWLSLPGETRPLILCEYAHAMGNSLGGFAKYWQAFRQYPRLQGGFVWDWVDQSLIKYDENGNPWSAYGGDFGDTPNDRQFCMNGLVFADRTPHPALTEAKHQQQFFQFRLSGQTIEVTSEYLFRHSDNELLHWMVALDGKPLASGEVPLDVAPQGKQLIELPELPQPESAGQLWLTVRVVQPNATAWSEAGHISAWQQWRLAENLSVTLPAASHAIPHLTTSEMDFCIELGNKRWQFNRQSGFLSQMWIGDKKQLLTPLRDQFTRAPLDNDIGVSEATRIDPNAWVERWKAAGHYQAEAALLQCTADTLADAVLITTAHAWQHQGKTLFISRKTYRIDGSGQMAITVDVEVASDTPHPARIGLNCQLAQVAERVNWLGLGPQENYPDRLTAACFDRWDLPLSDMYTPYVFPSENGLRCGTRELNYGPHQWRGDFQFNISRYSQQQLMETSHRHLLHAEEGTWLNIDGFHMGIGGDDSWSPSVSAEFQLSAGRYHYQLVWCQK
T6 sequence (P49327 whole entry, the tested form may be a part): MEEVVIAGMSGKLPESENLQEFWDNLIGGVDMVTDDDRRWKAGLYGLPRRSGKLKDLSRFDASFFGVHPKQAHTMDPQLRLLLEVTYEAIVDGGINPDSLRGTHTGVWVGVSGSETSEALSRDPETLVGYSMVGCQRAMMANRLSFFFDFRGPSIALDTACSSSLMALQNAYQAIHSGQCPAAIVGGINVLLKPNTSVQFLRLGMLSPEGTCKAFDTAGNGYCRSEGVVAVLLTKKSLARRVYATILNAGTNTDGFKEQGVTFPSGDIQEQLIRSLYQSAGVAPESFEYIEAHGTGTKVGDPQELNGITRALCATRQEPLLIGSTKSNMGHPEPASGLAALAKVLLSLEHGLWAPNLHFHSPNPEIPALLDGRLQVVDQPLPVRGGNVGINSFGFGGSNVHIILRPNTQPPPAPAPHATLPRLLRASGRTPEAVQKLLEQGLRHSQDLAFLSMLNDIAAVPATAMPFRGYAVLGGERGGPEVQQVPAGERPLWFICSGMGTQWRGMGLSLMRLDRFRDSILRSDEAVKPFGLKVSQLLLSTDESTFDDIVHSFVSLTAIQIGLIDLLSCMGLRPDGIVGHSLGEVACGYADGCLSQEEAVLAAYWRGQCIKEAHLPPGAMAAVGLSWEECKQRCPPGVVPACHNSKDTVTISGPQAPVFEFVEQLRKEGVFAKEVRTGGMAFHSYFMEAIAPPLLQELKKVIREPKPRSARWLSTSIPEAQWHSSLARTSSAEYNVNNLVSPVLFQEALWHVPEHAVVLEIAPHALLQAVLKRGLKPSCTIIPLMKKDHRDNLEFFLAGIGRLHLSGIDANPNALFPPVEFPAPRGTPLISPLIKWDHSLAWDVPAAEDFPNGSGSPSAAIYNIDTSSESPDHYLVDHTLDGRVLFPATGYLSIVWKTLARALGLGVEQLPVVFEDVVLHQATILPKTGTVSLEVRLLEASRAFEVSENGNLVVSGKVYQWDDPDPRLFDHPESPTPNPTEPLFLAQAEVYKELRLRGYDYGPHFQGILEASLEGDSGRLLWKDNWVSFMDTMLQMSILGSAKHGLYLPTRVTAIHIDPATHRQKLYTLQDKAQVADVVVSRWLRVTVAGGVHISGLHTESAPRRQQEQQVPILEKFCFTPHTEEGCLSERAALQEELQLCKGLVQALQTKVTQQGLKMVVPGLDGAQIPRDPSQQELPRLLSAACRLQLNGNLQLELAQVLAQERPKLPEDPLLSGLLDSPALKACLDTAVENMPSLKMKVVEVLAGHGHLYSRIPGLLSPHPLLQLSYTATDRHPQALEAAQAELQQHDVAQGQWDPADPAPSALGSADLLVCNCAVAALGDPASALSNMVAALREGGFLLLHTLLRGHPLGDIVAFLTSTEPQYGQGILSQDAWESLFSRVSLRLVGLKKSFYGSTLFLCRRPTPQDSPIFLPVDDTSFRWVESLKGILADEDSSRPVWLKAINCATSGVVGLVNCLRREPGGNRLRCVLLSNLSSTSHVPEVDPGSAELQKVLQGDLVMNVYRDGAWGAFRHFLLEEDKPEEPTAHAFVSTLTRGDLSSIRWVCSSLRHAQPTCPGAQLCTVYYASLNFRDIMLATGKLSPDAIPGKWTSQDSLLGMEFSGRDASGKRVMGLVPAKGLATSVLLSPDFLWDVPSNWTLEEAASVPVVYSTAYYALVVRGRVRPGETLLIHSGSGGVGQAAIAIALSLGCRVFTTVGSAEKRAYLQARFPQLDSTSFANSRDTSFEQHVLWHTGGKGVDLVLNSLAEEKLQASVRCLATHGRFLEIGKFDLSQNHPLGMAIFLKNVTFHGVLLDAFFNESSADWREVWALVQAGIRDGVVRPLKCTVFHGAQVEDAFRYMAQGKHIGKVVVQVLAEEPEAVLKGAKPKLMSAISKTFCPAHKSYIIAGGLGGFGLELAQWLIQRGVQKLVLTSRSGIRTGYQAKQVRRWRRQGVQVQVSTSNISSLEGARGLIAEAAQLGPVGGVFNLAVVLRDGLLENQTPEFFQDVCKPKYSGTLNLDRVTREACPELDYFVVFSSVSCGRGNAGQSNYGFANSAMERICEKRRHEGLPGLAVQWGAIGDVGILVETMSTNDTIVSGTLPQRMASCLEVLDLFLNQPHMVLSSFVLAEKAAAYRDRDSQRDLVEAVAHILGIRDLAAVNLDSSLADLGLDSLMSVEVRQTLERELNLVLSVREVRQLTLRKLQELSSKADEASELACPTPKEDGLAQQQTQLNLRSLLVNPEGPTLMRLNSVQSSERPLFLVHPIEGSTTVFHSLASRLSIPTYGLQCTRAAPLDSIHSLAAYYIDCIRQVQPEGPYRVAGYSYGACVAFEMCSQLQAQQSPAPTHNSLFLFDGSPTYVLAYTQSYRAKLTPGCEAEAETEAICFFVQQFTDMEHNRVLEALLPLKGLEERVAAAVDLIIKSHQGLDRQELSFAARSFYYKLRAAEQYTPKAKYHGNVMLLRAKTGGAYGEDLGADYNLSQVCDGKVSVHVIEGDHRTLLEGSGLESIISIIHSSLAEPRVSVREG

Structure (SMILES): CCN(CC)c1ncnc2ccc(Br)cc12
- AC50 [1]: 3.74 µM (active)
- AC50 [2]: 6.58 µM (active)
- AC50 [3]: 6 µM (active)
- EC50 [4]: 13.8 µM (active)
- AC50 [5]: 3.83 µM (active)

Structure (SMILES): CC(C)Oc1cccc(C(=O)NC(=S)Nc2cccnc2)c1
- EC50 [6]: > 40 µM (inactive)
- IC50 [7]: > 40 µM (not active)

Structure (SMILES): Cn1ncc(Oc2ccc([N+](=O)[O-])cc2)c(Cl)c1=O
- EC50 [8]: 25.9 µM (active)
- IC50 [9]: > 50 µM (inactive)
- EC50 [10]: > 120 µM (not active)
- EC50 [11]: > 120 µM (not active)

Structure (SMILES): COc1ccc(N2CCN(S(=O)(=O)c3ccc(C(=O)NC4CCCC4)cc3)CC2)cc1
- IC50 [9]: > 50 µM (inactive)

Structure (SMILES): O=C(NC(=S)Nc1ccc(S(=O)(=O)Nc2nccs2)cc1)c1ccccc1F
- IC50 [9]: > 50 µM (inactive)

Structure (SMILES): Cc1cc(C)c(O)c(-c2cc(C(=O)NCc3ccccc3)[nH]n2)c1
- IC50 [12]: 3.02 µM (not active)

Structure (SMILES): CC1=C(C(=O)OCC2CCCO2)C(c2ccc(C)o2)C2=C(O)CC(c3ccc(N(C)C)cc3)CC2=N1 (centres undefined)
- IC50 [12]: > 50 µM (not active)

Structure (SMILES): O=C(CN1C(=O)C2C3C=CC(C3)C2C1=O)Nc1nc(-c2ccccn2)cs1 (centres undefined)
- EC50 [13]: > 120 µM (not active)
- IC50 [14]: 10.5 µM (active)
- IC50 [15]: 15.1 µM (active)
- EC50 [16]: 15.4 µM (active)
- EC50 [17]: 12.2 µM (active)

Structure (SMILES): CCCCCCCCCC(=O)N1c2ccccc2NC(=O)C1CC(=O)Nc1ccc(C(=O)O)cc1 (centres undefined)
- IC50 [12]: 21.1 µM (not active)

Structure (SMILES): O=C(O)CC(Cc1ccc(Cl)cc1)C(=O)Nc1ccc([N+](=O)[O-])cc1 (centres undefined)
- IC50 [12]: > 50 µM (not active)

Structure (SMILES): O=C(CSc1nnnn1-c1ccccc1)CSc1nnnn1-c1ccccc1
- IC50 [12]: 7.04 µM (not active)

Structure (SMILES): CCCc1nc2[nH]nc(N)c2c2c1CCC2
- IC50 [9]: > 50 µM (inactive)

Structure (SMILES): CCC(C)(C)NC(=O)C(c1ccc(C)o1)N(Cc1ccc2c(c1)OCO2)C(=O)c1snc(C(N)=O)c1N (centres undefined)
- IC50 [18]: > 20 µM (inactive)

Structure (SMILES): O=C(OCc1nnc(-c2ccccc2)o1)c1ccc2c(c1)OCO2
- IC50 [12]: 15.2 µM (not active)

Structure (SMILES): c1cnc2c(c1)ccc1cccnc12
- IC50 [14]: 1.03 µM (active)
- EC50 [19]: 6.76 µM (inconclusive)

Structure (SMILES): O=C(NNC(=O)C12CC3CC(CC(C3)C1)C2)c1cnccn1
- EC50 [19]: > 160 µM (inactive)
- EC50 [20]: > 38 µM (not active)
- CC50 [21]: 39.8 µM (active)

Structure (SMILES): O=C(CCN1C(=O)C2C3CC(C(Br)C3Br)C2C1=O)OCC(=O)c1cccc([N+](=O)[O-])c1 (centres undefined)
- EC50 [6]: > 40 µM (inactive)
- IC50 [7]: 28.4 µM (not active)

Structure (SMILES): COc1ccc(C2=NN(C(=O)c3ccc(Cl)c([N+](=O)[O-])c3)C(c3ccccc3)C2)cc1 (centres undefined)
- IC50 [12]: 3.26 µM (not active)

Structure (SMILES): COc1ccc2sc(-c3ccccc3OC)c(C#Cc3cncn3C)c2c1
- IC50 [18]: > 20 µM (inactive)

Structure (SMILES): COc1cccc(/C=N/n2c(N)c(S(=O)(=O)c3cccs3)c3nc4ccccc4nc32)c1OC
- IC50 [9]: > 50 µM (inactive)

Structure (SMILES): Cc1ncc(CO)c(/C=N/NC(=S)Nc2ccc(F)cc2)c1O
- IC50 [14]: 2.84 µM (active)

Structure (SMILES): COc1ccc(O)c(/C=N/NC(=O)c2cc(O)nc3ccccc23)c1
- IC50 [9]: > 50 µM (inactive)

Structure (SMILES): O=C(Cn1nc2ccccc2n1)N/N=C/c1cc([N+](=O)[O-])ccc1O
- IC50 [22]: 3.76 µM (active)
- IC50 [14]: 5.08 µM (active)
- IC50 [23]: 5.14 µM (active)
- EC50 [24]: 0.419 µM (active)
- EC50 [25]: 0.55 µM (active)
- EC50 [4]: 0.691 µM (active)

Structure (SMILES): O=C(c1ccccn1)N1CC(=O)N2[C@H](C1)[C@@H](c1ccc(C#CCc3ccccc3)cc1)[C@@H]2CO
- AC50 [26]: 9.01 µM (active)

Structure (SMILES): CCC(=O)N1CC2(C1)CN(Cc1ccccc1Cl)[C@@H](CO)c1[nH]c3cc(OC)ccc3c12
- AC50 [26]: 6.32 µM (active)

Structure (SMILES): C[C@@H]1CN([C@@H](C)CO)C(=O)c2cc(NC(=O)Nc3ccc(C(F)(F)F)cc3)ccc2O[C@H]1CN(C)C(=O)Nc1cccc2ccccc12
- AC50 [26]: 5.06 µM (active)

Structure (SMILES): C[C@@H]1CN([C@H](C)CO)C(=O)c2cccc(NS(=O)(=O)c3ccccc3)c2O[C@H]1CN(C)Cc1ccc(Oc2ccccc2)cc1
- AC50 [26]: 6.14 µM (active)

Structure (SMILES): CC1CCN(CCNC(=O)c2ccc3c(=O)n(Cc4ccc(Cl)cc4)c(=S)[nH]c3c2)CC1
- IC50 [18]: > 20 µM (inactive)
